Ten compounds from patent publication US12459951B2, “Compounds that interact with RAS superfamily proteins for treatment of cancers, inflammatory diseases, rasopathies, and fibrotic disease” (SHY Therapeutics, LLC, priority 2022, dated 2025) can be followed below.

One assay deals with IL6. Nature of the assay: IL-6 Quantification Assay (ELISA), LPS-stimulated RAW 264.7. It counts as cell-based. Also on record: inhibition: dose or concentration left out as unconfirmed. The conditions noted are these: Mus musculus, RAW264.7; read-out: IL-6: % inh. (In general: In an ELISA, binding on a coated surface is turned into a signal by an enzyme label.)
The subject of another assay is Akt phosphorylation. Nature of the assay: Akt Phosphorylation Assay (western blot), Panc-1. In kind it is cell-based, human. The conditions noted are these: at 10 μM, * = activation. The gist of the method: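 Phospho-Akt (Ser473) was measured by western blot in lysates of KRas G12D Panc-1 cells exposed to test compound for 6 h at 37 °C, either at 10 μM final with 0.3% DMSO or as serial dilutions for IC50. One format used overnight 0.5% FBS starvation followed by a 15 min pulse of 1.5 ng/ml EGF. The other used cells in 10% FBS with no stimulation.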
Background: Immunoblotting shows a protein as a band on a membrane.

In a further assay the target is T1, Rac-1 (Homo sapiens, UniProt P63000).
T1 construct: made in house
Nature of the assay: Ras GTP Binding Domain Inhibition Assay (Ras Superfamily Assay). The conditions noted are these: read-out: Rac-1: % inh. The gist of the method:
(§1)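 Binding of 100 nM fluorescent GTP (Cy3 or Cy5, 45 min, room temperature) was read after washes from plate-captured His-tagged protein. Beforehand, compounds at 20 μM or in dilution series for IC50 sat 3 h on the protein in Tris buffer pH 7.4 or 7.0 with 1% DMSO, Sos GEF optionally added for the last hour.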

The next assay relates to KRas wild type. The description is as above. The conditions noted are these: 20 μM compound; for KRas wild type + SOS: % inh.: with SOS; for KRas wild type: % inh.: without SOS. The gist of the method: as §1
Another assay has as its system KRas G12D mutant. Described as above. The conditions noted are these: 20 μM compound; for KRas G12D mutant + SOS: % inh.: with SOS; for KRas G12D mutant: % inh.: without SOS. The gist of the method: as §1

`COc1ccnc(Nc2nc(-c3nccn3C)nn3cc(-c4cnn(C(C)C)c4)c(C)c23)c1` [Compound 165, 6-(1-Isopropyl-1H-pyrazol-4-yl)-N-(4-methoxypyridin-2-yl)-5-methyl-2-(1-methyl-1H-imidazol-2-yl)pyrrolo[2,1-f][1,2,4]triazin-4-amine]: the inhibition with IL6 lay in the range of 50 to 74%. Further, in the assay with Akt phosphorylation, the “% inh of Akt phosphorylation in Panc-1” value is given as “D* (85-100% activation)”. The inhibition at 20 µM on Rac-1 was 50 to 75%. Further, in the assay with KRas wild type, the “KRas wild type + SOS: % inh.” value is reported as “D (D = 76-100% inhibition)” and the “KRas wild type: % inh.” value was “D (D = 76-100% inhibition)”. Also, in the assay with KRas G12D mutant, the “KRas G12D mutant + SOS: % inh.” value is recorded as “D (D = 76-100% inhibition)” and the “KRas G12D mutant: % inh.” value is listed as “D (D = 76-100% inhibition)”.

`COc1ccnc(Nc2nc(-c3nccn3C)nn3cc(-c4cccnc4)c(C)c23)c1` [Compound 157, N-(4-Methoxy-pyridin-2-yl)-5-methyl-2-(1-methyl-1H-imidazol-2-yl)-6-(pyridin-3-yl)pyrrolo[2,1-f][1,2,4]triazin-4-amine]: the inhibition with IL6 was 1 to 24%. The “% inh of Akt phosphorylation in Panc-1” value with Akt phosphorylation is reported as “D* (85-100% activation)”. The inhibition at 20 µM at Rac-1 was 76 to 100%. In the assay on KRas wild type, the “KRas wild type + SOS: % inh.” value is on record as “D (D = 76-100% inhibition)” and the “KRas wild type: % inh.” value is on record as “D (D = 76-100% inhibition)”. Moreover, in the assay with KRas G12D mutant, the “KRas G12D mutant + SOS: % inh.” value is reported as “D (D = 76-100% inhibition)” and the “KRas G12D mutant: % inh.” value was “D (D = 76-100% inhibition)”.

For the compound `COc1ccnc(Nc2nc(-c3nccn3C)nn3cc(-c4cccnc4)c(-c4cccnc4)c23)c1` [Compound 169, N-(4-methoxypyridin-2-yl)-2-(1-methyl-1H-imidazol-2-yl)-5,6-di(pyridin-3-yl)pyrrolo[2,1-f][1,2,4]triazin-4-amine], in the assay on IL6, the inhibition was in the range of 1 to 24%. Moreover, in the assay with Akt phosphorylation, the “% inh of Akt phosphorylation in Panc-1” value is “C* (46-84% activation)”. Besides, the inhibition at 20 µM at Rac-1 lay within 76 to 100%. In addition, in the assay with KRas wild type, the “KRas wild type + SOS: % inh.” value is recorded as “D (D = 76-100% inhibition)” and the “KRas wild type: % inh.” value was “D (D = 76-100% inhibition)”. Moreover, in the assay with KRas G12D mutant, the “KRas G12D mutant + SOS: % inh.” value is “D (D = 76-100% inhibition)” and the “KRas G12D mutant: % inh.” value is on record as “D (D = 76-100% inhibition)”.

With `Cc1c(-c2ccn(C(C)C)n2)cn2nc(-c3ccccn3)nc(O)c12` [Compound 8, 6-(1-Isopropyl-1H-pyrazol-3-yl)-5-methyl-2-(pyridin-2-yl)pyrrolo[2,1-f][1,2,4]triazin-4-ol], the inhibition in the assay on IL6 was determined as 0%. Besides, the “% inh of Akt phosphorylation in Panc-1” value in the assay with Akt phosphorylation is reported as 0 (0% inhibition). For the same compound, the inhibition at 20 µM at Rac-1 was 0%. In addition, in the assay with KRas wild type, the “KRas wild type + SOS: % inh.” value is 0 (0 = 0% inhibition) and the “KRas wild type: % inh.” value is given as “A (A = 1-25% inhibition)”. Moreover, in the assay on KRas G12D mutant, the “KRas G12D mutant + SOS: % inh.” value is given as “A (A = 1-25% inhibition)” and the “KRas G12D mutant: % inh.” value was 0 (0 = 0% inhibition).

Turning to `Cc1c(-c2ccn(C)n2)cn2nc(-c3nccn3C)nc(Nc3nccc(OCCN(C)C)n3)c12` [Compound 105, N-(4-(2-(Dimethylamino)ethoxy)pyrimidin-2-yl)-5-methyl-2-(1-methyl-1H-imidazol-2-yl)-6-(1-methyl-1H-pyrazol-3-yl)pyrrolo[2,1-f][1,2,4]triazin-4-amine], the inhibition with IL6 is 75 to 100%. For the same compound, the “% inh of Akt phosphorylation in Panc-1” value with Akt phosphorylation is listed as “C* (46-84% activation)”. On Rac-1, the inhibition at 20 µM is 76 to 100%. Further, in the assay with KRas wild type, the “KRas wild type + SOS: % inh.” value is “D (D = 76-100% inhibition)” and the “KRas wild type: % inh.” value is recorded as “C (C = 50-75% inhibition)”. For the same compound, in the assay with KRas G12D mutant, the “KRas G12D mutant + SOS: % inh.” value is recorded as “D (D = 76-100% inhibition)” and the “KRas G12D mutant: % inh.” value is listed as “D (D = 76-100% inhibition)”.

For the compound `Cc1c(-c2ccn(C)n2)cn2nc(-c3nccn3C)nc(Nc3cc(OC(C)C)ccn3)c12` [Compound 136, N-(4-Isopropoxypyridin-2-yl)-5-methyl-2-(1-methyl-1H-imidazol-2-yl)-6-(1-methyl-1H-pyrazol-3-yl)pyrrolo[2,1-f][1,2,4]triazin-4-amine], the inhibition in the assay on IL6 lay within 25 to 49%. For the same compound, in the assay on Akt phosphorylation, the “% inh of Akt phosphorylation in Panc-1” value is on record as “D* (85-100% activation)”. Also, the inhibition at 20 µM on Rac-1 lay within 76 to 100%. Also, in the assay with KRas wild type, the “KRas wild type + SOS: % inh.” value is reported as “D (D = 76-100% inhibition)” and the “KRas wild type: % inh.” value is “C (C = 50-75% inhibition)”. For the same compound, in the assay with KRas G12D mutant, the “KRas G12D mutant + SOS: % inh.” value is given as “D (D = 76-100% inhibition)” and the “KRas G12D mutant: % inh.” value is “D (D = 76-100% inhibition)”.

Turning to `Cc1c(-c2ccn(C)n2)cn2nc(-c3nccn3C)nc(Nc3nnco3)c12.Cl` [Compound 119, N-(5-Methyl-2-(1-methyl-1H-imidazol-2-yl)-6-(1-methyl-1H-pyrazol-3-yl)pyrrolo[2,1-f][1,2,4]triazin-4-yl)-1,3,4-oxadiazol-2-amine hydrochloride salt], the inhibition with IL6 was 50 to 74%. Also, the “% inh of Akt phosphorylation in Panc-1” value with Akt phosphorylation is reported as “D* (85-100% activation)”. The inhibition at 20 µM at Rac-1 fell in the range of 26 to 49%. In addition, in the assay on KRas wild type, the “KRas wild type + SOS: % inh.” value is “A (A = 1-25% inhibition)” and the “KRas wild type: % inh.” value was “C (C = 50-75% inhibition)”. In addition, in the assay with KRas G12D mutant, the “KRas G12D mutant + SOS: % inh.” value is “B (B = 26-49% inhibition)” and the “KRas G12D mutant: % inh.” value was “C (C = 50-75% inhibition)”.

As to `CO[C@H]1C[C@H](Nc2nc(-c3nccn3C)nn3cc(-c4ccncc4)c(C)c23)C1` [Compound 159, N-((1r,3r)-3-Methoxycyclobutyl)-5-methyl-2-(1-methyl-1H-imidazol-2-yl)-6-(pyridin-4-yl)pyrrolo[2,1-f][1,2,4]triazin-4-amine], the inhibition in the assay with IL6 was in the range of 1 to 24%. Also, the “% inh of Akt phosphorylation in Panc-1” value with Akt phosphorylation is recorded as “B (26-49% inhibition)”. The inhibition at 20 µM at Rac-1 is 0%. For the same compound, in the assay on KRas wild type, the “KRas wild type + SOS: % inh.” value is 0 (0 = 0% inhibition) and the “KRas wild type: % inh.” value is reported as “A (A = 1-25% inhibition)”. In the assay with KRas G12D mutant, the “KRas G12D mutant + SOS: % inh.” value is reported as 0 (0 = 0% inhibition) and the “KRas G12D mutant: % inh.” value is reported as 0 (0 = 0% inhibition).

As for `Cc1c(-c2ccn(C)n2)cn2nc(-c3nccn3C)nc(Nc3cc(OC(F)(F)F)ccn3)c12` [Compound 127, 5-Methyl-2-(1-methyl-1H-imidazol-2-yl)-6-(1-methyl-1H-pyrazol-3-yl)-N-(4-(trifluoromethoxy)pyridin-2-yl)pyrrolo[2,1-f][1,2,4]triazin-4-amine], the inhibition in the assay on IL6 lay in the range of 50 to 74%. Also, in the assay with Akt phosphorylation, the “% inh of Akt phosphorylation in Panc-1” value is recorded as “D* (85-100% activation)”. Moreover, the inhibition at 20 µM at Rac-1 was in the range of 76 to 100%. In the assay with KRas wild type, the “KRas wild type + SOS: % inh.” value was “D (D = 76-100% inhibition)” and the “KRas wild type: % inh.” value is recorded as “D (D = 76-100% inhibition)”. For the same compound, in the assay on KRas G12D mutant, the “KRas G12D mutant + SOS: % inh.” value was “D (D = 76-100% inhibition)” and the “KRas G12D mutant: % inh.” value is given as “D (D = 76-100% inhibition)”.

For `Cc1c(-c2ccn(C3CC3)n2)cn2nc(-c3nccn3C)nc(Nc3cc(N(C)C)ccn3)c12` [Compound 145, N^2-(6-(1-Cyclopropyl-1H-pyrazol-3-yl)-5-methyl-2-(1-methyl-1H-imidazol-2-yl)pyrrolo[2,1-f][1,2,4]triazin-4-yl)-N^4,N^4-dimethylpyridine-2,4-diamine], the inhibition in the assay on IL6 was 50 to 74%. Further, the “% inh of Akt phosphorylation in Panc-1” value with Akt phosphorylation was “D* (85-100% activation)”. The inhibition at 20 µM at Rac-1 lay within 76 to 100%. In addition, in the assay with KRas wild type, the “KRas wild type + SOS: % inh.” value was “D (D = 76-100% inhibition)” and the “KRas wild type: % inh.” value is on record as “D (D = 76-100% inhibition)”. Further, in the assay with KRas G12D mutant, the “KRas G12D mutant + SOS: % inh.” value is on record as “D (D = 76-100% inhibition)” and the “KRas G12D mutant: % inh.” value is given as “D (D = 76-100% inhibition)”.
